Legend:
[1] = target: Axl (Homo sapiens (Human), UniProt P30530); conditions: read-out: IC50 Axl
[2] = target: Tyro3 (Homo sapiens (Human), UniProt Q06418); conditions: read-out: IC50 Tyro3
Chain of Tyro3 (Q06418 41-890 limits assumed): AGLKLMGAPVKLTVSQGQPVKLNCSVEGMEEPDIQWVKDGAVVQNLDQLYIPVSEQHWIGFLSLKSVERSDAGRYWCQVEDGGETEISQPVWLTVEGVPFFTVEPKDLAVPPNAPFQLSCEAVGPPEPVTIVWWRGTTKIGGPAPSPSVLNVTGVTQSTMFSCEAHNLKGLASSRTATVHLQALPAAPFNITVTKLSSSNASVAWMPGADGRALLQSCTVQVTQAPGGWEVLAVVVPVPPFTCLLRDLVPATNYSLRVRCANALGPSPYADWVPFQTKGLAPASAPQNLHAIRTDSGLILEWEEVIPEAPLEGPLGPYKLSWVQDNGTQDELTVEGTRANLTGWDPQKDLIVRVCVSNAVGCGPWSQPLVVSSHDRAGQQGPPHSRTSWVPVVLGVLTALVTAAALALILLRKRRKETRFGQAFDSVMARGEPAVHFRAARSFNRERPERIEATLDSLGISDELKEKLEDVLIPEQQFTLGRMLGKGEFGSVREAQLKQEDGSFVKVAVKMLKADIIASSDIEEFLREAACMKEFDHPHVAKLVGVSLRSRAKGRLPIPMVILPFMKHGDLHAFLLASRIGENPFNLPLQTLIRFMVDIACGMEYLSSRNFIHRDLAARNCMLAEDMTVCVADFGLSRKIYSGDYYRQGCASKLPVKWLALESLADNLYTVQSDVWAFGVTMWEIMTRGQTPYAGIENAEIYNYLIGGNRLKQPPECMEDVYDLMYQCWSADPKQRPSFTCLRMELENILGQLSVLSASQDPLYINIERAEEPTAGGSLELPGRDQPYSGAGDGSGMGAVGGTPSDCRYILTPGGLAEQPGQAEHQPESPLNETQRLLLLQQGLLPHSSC

Chain of Axl (P30530 26-894 limits assumed): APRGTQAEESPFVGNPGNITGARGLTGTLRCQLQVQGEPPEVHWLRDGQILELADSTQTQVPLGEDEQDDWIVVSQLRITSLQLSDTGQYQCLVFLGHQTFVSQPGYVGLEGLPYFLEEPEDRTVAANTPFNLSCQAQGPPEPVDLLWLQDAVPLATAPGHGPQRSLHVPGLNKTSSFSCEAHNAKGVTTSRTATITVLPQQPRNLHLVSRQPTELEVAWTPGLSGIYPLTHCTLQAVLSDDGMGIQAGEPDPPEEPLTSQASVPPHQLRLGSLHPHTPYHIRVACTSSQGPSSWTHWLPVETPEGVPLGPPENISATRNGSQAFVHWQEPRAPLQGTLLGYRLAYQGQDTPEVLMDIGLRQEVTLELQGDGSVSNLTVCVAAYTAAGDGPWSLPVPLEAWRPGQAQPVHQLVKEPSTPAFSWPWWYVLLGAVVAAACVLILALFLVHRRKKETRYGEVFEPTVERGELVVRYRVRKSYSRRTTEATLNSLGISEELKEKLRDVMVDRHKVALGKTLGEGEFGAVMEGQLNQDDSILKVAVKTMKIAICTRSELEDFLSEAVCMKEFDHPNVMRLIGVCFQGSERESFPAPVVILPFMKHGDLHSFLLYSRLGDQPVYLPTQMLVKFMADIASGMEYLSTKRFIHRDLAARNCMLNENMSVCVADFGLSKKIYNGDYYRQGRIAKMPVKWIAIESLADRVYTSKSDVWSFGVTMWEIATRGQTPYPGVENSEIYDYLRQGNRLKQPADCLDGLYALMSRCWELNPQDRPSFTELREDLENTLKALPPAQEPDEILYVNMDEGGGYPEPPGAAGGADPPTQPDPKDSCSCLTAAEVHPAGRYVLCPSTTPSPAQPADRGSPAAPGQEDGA

Compound	IC50 [1] [µM]	IC50 [2] [µM]
CCCCNc1ncc(C(=O)NC2CCN(Cc3ccc(N4CCOCC4)cc3)CC2)c(N[C@H]2CC[C@H](O)CC2)n1 [UNC2918A]	0.667	0.145
CCCCNc1ncc(C(=O)NCc2ccc(-n3cnc(C)c3)cc2)c(N[C@H]2CC[C@H](O)CC2)n1 [UNC2956A]	0.136	0.2
CCCCNc1ncc(C(=O)NCc2ccc(-n3ccnc3-c3ccccc3)cc2)c(N[C@H]2CC[C@H](O)CC2)n1 [UNC2957A]	0.593	0.975
CCCCNc1ncc(-c2ccccn2)c(NCCCCCO)n1 [UNC2964A]	5.27	2.77
CCCCNc1ncc(C(=O)NCc2ccc(-n3cnc(-c4ccccc4)c3)cc2)c(N[C@H]2CC[C@H](O)CC2)n1 [UNC2969A]	0.667	1.06
CCCCNc1ncc(-c2ccccn2)c(NCCO)n1 [UNC2997A]	30	20
CCCCNc1ncc(-c2ccccn2)c(Nc2ccc(O)cc2)n1 [UNC2998A]	30	0.363
CCCCNc1ncc(C(=O)NCc2ccc(-n3ccnc3C)cc2)c(N[C@H]2CC[C@H](O)CC2)n1 [UNC3004A]	0.822	0.272
CCCCNc1ncc(-c2cnc(N)cn2)c(N[C@H]2CC[C@H](O)CC2)n1 [UNC3041A]	0.968	0.605
CCCCNc1ncc(-c2ccc(C(=O)O)nn2)c(N[C@H]2CC[C@H](O)CC2)n1 [UNC3042A]	0.558	0.192
CCCCNc1ncc(-c2cnc(N)c(OC)n2)c(N[C@H]2CC[C@H](O)CC2)n1 [UNC3043A]	2.31	1.64
CCCCNc1ncc(-c2ccc(N3CCCC3)nn2)c(N[C@H]2CC[C@H](O)CC2)n1 [UNC3044A]	0.912	0.377
CCCCNc1ncc(-c2nccs2)c(N[C@H]2CC[C@H](O)CC2)n1 [UNC3047A]	0.597	0.157
CCCCNc1ncc(-c2ccc(OC)nn2)c(N[C@H]2CC[C@H](O)CC2)n1 [UNC3049A]	4.44	0.221
CCCCNc1ncc(-c2ccc(NC3CC3)nn2)c(N[C@H]2CC[C@H](O)CC2)n1 [UNC3069A]	0.419	0.176
CCCCNc1ncc(-c2ccc(N3CCN(C(=O)OC(C)(C)C)CC3)nn2)c(N[C@H]2CC[C@H](O)CC2)n1 [UNC3071A]	0.275	0.298
CCCCNc1ncc(-c2cc(N)ncn2)c(N[C@H]2CC[C@H](O)CC2)n1 [UNC3072A]	0.123	0.043
CCCCNc1ncc(-c2cnc(SC)cn2)c(N[C@H]2CC[C@H](O)CC2)n1 [UNC3074A]	0.754	0.255
CCCCNc1ncc(-c2cc(NCC)ncn2)c(N[C@H]2CC[C@H](O)CC2)n1 [UNC3113A]	0.255	0.077
CCCCNc1ncc(-c2cncc(N3CCCC3)n2)c(N[C@H]2CC[C@H](O)CC2)n1 [UNC3115A]	0.642	0.415
CCCCNc1ncc(-c2cn(C)cn2)c(N[C@H]2CC[C@H](O)CC2)n1 [UNC3116A]	10	3.94
CCCCNc1ncc(-c2cn(C(c3ccccc3)(c3ccccc3)c3ccccc3)cn2)c(N[C@H]2CC[C@H](O)CC2)n1 [UNC3117A]	30	30

Compound	IC50 [1] [µM]	IC50 [2] [µM]
CCCCNc1ncc(-c2nccnc2N)c(N[C@H]2CC[C@H](O)CC2)n1 [UNC3119A]	30	9.62
CCCCNc1ncc(-c2ncc(CN3CCN(C)CC3)s2)c(N[C@H]2CC[C@H](O)CC2)n1 [UNC3121A]	0.096	0.071
CCCCNc1ncc(-c2cc(NC)ncn2)c(N[C@H]2CC[C@H](O)CC2)n1 [UNC3126A]	0.364	0.109
CCCCNc1ncc(-c2cc(SC)nc(C)n2)c(N[C@H]2CC[C@H](O)CC2)n1 [UNC3130A]	1.09	0.384
CCCCNc1ncc(-c2ncc(C(N)=O)s2)c(N[C@H]2CC[C@H](O)CC2)n1 [UNC3134A]	0.146	0.062
CCCCNc1ncc(-c2nc(CO)cs2)c(N[C@H]2CC[C@H](O)CC2)n1 [UNC3135A]	0.304	0.165
CCCCNc1ncc(-c2nc(C(N)=O)cs2)c(N[C@H]2CC[C@H](O)CC2)n1 [UNC3136A]	0.237	0.076
CCCCNc1ncc(-c2cncc(NC3CCCCC3)n2)c(N[C@H]2CC[C@H](O)CC2)n1 [UNC3137A]	1.23	0.412
CCCCNc1ncc(-c2cncc(N3CCOCC3)n2)c(N[C@H]2CC[C@H](O)CC2)n1 [UNC3138A]	1.25	0.935
CCCCNc1ncc(-c2nc(C(=O)O)cs2)c(N[C@H]2CC[C@H](O)CC2)n1 [UNC3139A]	4.54	2.55
CCCCNc1ncc(-c2ncc(C)s2)c(N[C@H]2CC[C@H](O)CC2)n1 [UNC3140A]	0.395	0.322
CCCCNc1ncc(C(=O)NCc2ccc(Cn3ccnc3)cc2)c(N[C@H]2CC[C@H](O)CC2)n1 [UNC3144A]	0.487	0.36
OCCCCNc1ncc(-c2nccs2)c(N[C@H]2CC[C@H](O)CC2)n1 [UNC3146A]	0.984	1.01
CCCCNc1ncc(-c2nc(C(F)(F)F)cs2)c(N[C@H]2CC[C@H](O)CC2)n1 [UNC3149A]	30	30
CCCCNc1ncc(-c2cc(NC(=O)c3ccc(F)cc3)ncn2)c(N[C@H]2CC[C@H](O)CC2)n1 [UNC3182A]	30	30
CCCCNc1ncc(C(=O)NCc2ccc(-n3cnc(CO)c3)cc2)c(N[C@H]2CC[C@H](O)CC2)n1 [UNC3183A]	0.703	0.372
CCCCNc1ncc(-c2ncc(C(=O)O)s2)c(N[C@H]2CC[C@H](O)CC2)n1 [UNC3331A]	0.414	0.095
CCCCNc1ncc(-c2ccc(C3(N4CCOCC4)CC3)cn2)c(NC2CCC(O)CC2)n1 (stereo not drawn) [UNC3664A]	0.093	0.018
CCCCNc1ncc(-c2ccc(C3(N4CCOCC4)CCC3)cn2)c(NC2CCC(O)CC2)n1 (stereo not drawn) [UNC3666A]	0.052	0.011
CCCCNc1ncc(-c2ccc(C3(N4CCOCC4)CCCC3)cn2)c(NC2CCC(O)CC2)n1 (stereo not drawn) [UNC3667A]	0.047	0.0074
CCCC1(Nc2ncc(-c3ccc(CN4CCN(C)CC4)cn3)c(NC3CCC(O)CC3)n2)CC1 (stereo not drawn) [UNC3668A]	5.3	0.409
CCCCNc1ncc(-c2ccc(CN3CCN[C@@H](C)C3)cn2)c(NC2CCC(O)CC2)n1 (stereo partly drawn) [UNC4106A]	0.047	0.022

Compound	IC50 [1] [µM]	IC50 [2] [µM]
CCCCNc1ncc(-c2ccc(CN3C[C@H](C)NC[C@H]3C)cn2)c(NC2CCC(O)CC2)n1 (stereo partly drawn) [UNC4109A]	0.119	0.028
CCCCNc1ncc(-c2ccc(CN3C[C@@H]4C[C@H]3CN4)cn2)c(NC2CCC(O)CC2)n1 (stereo partly drawn) [UNC4112A]	0.032	0.019
CCCCNc1ncc(-c2ccc(CN3CCN[C@H](C)C3)cn2)c(NC2CCC(O)CC2)n1 (stereo partly drawn) [UNC4113A]	0.055	0.018
CCCCNc1ncc(-c2ccc(CNC3CC4CCC(C3)N4C)cn2)c(N[C@H]2CC[C@H](O)CC2)n1 (stereo partly drawn) [UNC4163A]	0.02	0.0087
CCCCNc1ncc(-c2ccc(CNC3CC4CCC(C3)N4C)cn2)c(N[C@H]2CC[C@H](O)CC2)n1 (stereo partly drawn) [UNC4165A]	0.018	0.008
CCCCNc1ncc(-c2ccc(CNC34CC5CC(CC(C5)C3)C4)cn2)c(N[C@H]2CC[C@H](O)CC2)n1 [UNC4166A]	0.013	0.0094
CCCCNc1ncc(-c2ccc(CN3C4CCCC3CC4)cn2)c(N[C@H]2CC[C@H](O)CC2)n1 [UNC4169A]	0.0096	0.0039
O[C@H]1CC[C@H](Nc2nc(NCCC3CC3)ncc2-c2ccc(CN3CCCC3)cn2)CC1 [UNC4197A]	0.043	0.024
CCCCNc1ncc(-c2ccc(CCCN3CCCC3)cn2)c(N[C@H]2CC[C@H](O)CC2)n1 [UNC4220A]	0.122	0.068
CCCCNc1ncc(-c2ccc(CCN3CCCC3)cn2)c(N[C@H]2CC[C@H](O)CC2)n1 [UNC4221A]	0.104	0.043
CCCCNc1ncc(-c2cc(Cl)c(CN3CCCC3)cn2)c(N[C@H]2CC[C@H](O)CC2)n1 [UNC4222A]	0.039	0.016
CCCCNc1ncc(-c2cc(O)c(CN3CCCC3)cn2)c(N[C@H]2CC[C@H](O)CC2)n1 [UNC4230A]	1.76	0.734
CCCCNc1ncc(C(=O)NCc2ccc(-c3ccccc3)nc2)c(N[C@H]2CC[C@H](O)CC2)n1 [UNC4234A]	0.47	0.195
CCCCNc1ncc(C(=O)NCc2ccc(-c3ccc4ccccc4c3)nc2)c(N[C@H]2CC[C@H](O)CC2)n1 [UNC4235A]	1.8	1.27
CCCCNc1ncc(C(=O)NCc2ccc(-c3cccnc3)nc2)c(N[C@H]2CC[C@H](O)CC2)n1 [UNC4236A]	0.216	0.092
CCCCNc1ncc(C(=O)NCc2ccc(-c3ccc(OC)cc3)nc2)c(N[C@H]2CC[C@H](O)CC2)n1 [UNC4238A]	0.698	0.242
CCCCNc1ncc(C(=O)NCc2ccc(-c3ccc(C#N)cc3)nc2)c(N[C@H]2CC[C@H](O)CC2)n1 [UNC4239A]	0.977	0.305
CCCCNc1ncc(C(=O)NCc2ccc(-c3cccc(OC)c3)nc2)c(N[C@H]2CC[C@H](O)CC2)n1 [UNC4246A]	0.489	0.244
CCCCNc1ncc(C(=O)NCc2ccc(-c3ccccc3OC)nc2)c(N[C@H]2CC[C@H](O)CC2)n1 [UNC4255A]	0.336	0.156
CCCCNc1ncc(C(=O)NCc2ccc(C3=CCCCC3)nc2)c(N[C@H]2CC[C@H](O)CC2)n1 [UNC4256A]	0.743	0.34
CCCCNc1ncc(C(=O)NCc2ccc(-c3c(C)noc3C)nc2)c(N[C@H]2CC[C@H](O)CC2)n1 [UNC4260A]	0.602	0.256
CCCCNc1ncc(-c2cc(NC3CCCCCC3)ncn2)c(N[C@H]2CC[C@H](O)CC2)n1 [UNC4261A]	0.579	0.38

— patent publication US9649309B2 (priority 2014, dated 2017)
